Experimental data reported in patent US20140051631A1, “PHARMACEUTICAL COMPOSITION COMPRISING TPO OR AN AGONIST OF THE TPO RECEPTOR” (priority 2012, published 2014).

What was measured:
DNA-PK = biological target: T1, DNA-PK (Mus musculus, UniProt P97313); assay: γH2AX foci resolution in LSK-CD34− cultures with DNA-PK inhibitor; type: cell-based, mice; details: 10 μm NU7441 in TPO-containing cultures of LSK-CD34− cells, IR 2 Gy, 24 h
T1 construct: LSK and LSK-CD34^− cells were sorted using ARIAS cell sorter; endogenous in cells; host or cells: primary mouse bone-marrow LSK-CD34- cells
Text: (§1) Mpl^−/− backcrossed on C57BL/6 (CD45.2) background (kindly provided by Dr F. de Sauvage) were described previously (Petit-Cocault et al., 2007). C57BL/6J (CD45.2 and CD45.1) and CB17-Prkdc-scid mice were purchased from Charles River and Harlan laboratories, respectively. Unless otherwise specified, mice of 8-10 weeks of age were used. Lin^− progenitors were isolated from BM and stained as described (Saulnier et al., 2012). LSK and LSK-CD34^− cells were sorted using ARIAS cell sorter (BD Franklin Lakes, N.J., USA) and cultured in StemSpan SFEM (StemCell Technologies) supplemented with recombinant Flt3-Ligand (100 ng/ml), interleukin-3 (IL-3, 10 ng/ml), interleukin-6 (IL-6, 10 ng/ml), Stem cell factor (SCF, 100 ng/ml), and with or without 50 ng/ml TPO (complete medium), all from Peprotech (Rocky Hill, N.J., USA). […] For competitive reconstitution experiments, 3000 LSKs sorted from C57BL/6 CD45.1 mice subjected or not to TBI (2 Gy) and TPO injection (8 μg/kg body weight), were injected in lethally irradiated (10 Gy) C57BL/6 CD45.2 congenic mice, together with 3×10^5 BM CD45.2 competitor cells and analyzed 4 months later.
(§2) Immunofluorescence was performed as described (Pawlikowska et al., 2010) with cells cytospun on glass slides. […] Pictures were analyzed using ImageJ software.

WT HSPCs = assay: Chromosomal rearrangements in HSPCs irradiated in vitro; type: cell-based, mice; details: WT HSPCs irradiated in vitro (2 Gy), cultured in the absence of TPO
Text: as §1
Chromosomal aberration analysis in metaphase spreads were performed as described previously (Pawlikowska et al., 2010). […] Fluorescence was analyzed with a Zeiss Axioplan epifluorescent microscope and ISIS/M-FISH imaging system (MetaSystems).

LSK and LSK-CD34^− cells [1] = assay: Persistent DNA damage (γH2AX) in LSK and LSK-CD34− cells 3 months after TBI; type: in vivo, mice; details: TPO prior to TBI, analyzed 3 months later
Text: as §1, §2

LSKs [2] = assay: Competitive reconstitution with LSKs from irradiated donor mice; type: in vivo
Text: as §1, with “USA). UT7-Mpl cells (Hamelin et al., 2006) were cultured in α-minimal essential medium (α-MEM) supplemented with 10% FCS and 2 U/ml erythropoietin (EPO, Boehringer Ingelheim).” for “USA).”

LSKs [3] = assay: γH2AX foci in LSKs of mice after TBI or chemotherapeutic drug injection; type: in vivo; details: WT mice, vs PBS
Text: (§3) Mpl^−/− backcrossed on C57BL/6 (CD45.2) background (kindly provided by Dr F. de Sauvage) were described previously (Petit-Cocault et al., 2007). C57BL/6J (CD45.2 and CD45.1) and CB17-Prkdc-scid mice were purchased from Charles River and Harlan laboratories, respectively. Unless otherwise specified, mice of 8-10 weeks of age were used. Lin^− progenitors were isolated from BM and stained as described (Saulnier et al., 2012). LSK and LSK-CD34^− cells were sorted using ARIAS cell sorter (BD Franklin Lakes, N.J., USA) and cultured in StemSpan SFEM (StemCell Technologies) supplemented with recombinant Flt3-Ligand (100 ng/ml), interleukin-3 (IL-3, 10 ng/ml), interleukin-6 (IL-6, 10 ng/ml), Stem cell factor (SCF, 100 ng/ml), and with or without 50 ng/ml TPO (complete medium), all from Peprotech (Rocky Hill, N.J., USA). UT7-Mpl cells (Hamelin et al., 2006) were cultured in α-minimal essential medium (α-MEM) supplemented with 10% FCS and 2 U/ml erythropoietin (EPO, Boehringer Ingelheim). Cell IR in vitro were carried-out in a Biobeam 8000 irradiator (Gamma Service Medical GmbH, Leipzig, Germany). Mice TBI were performed in cesium irradiator IBL 637 (Curie Institute, Paris). Etoposide and doxorubicine were purchased from sigma (Saint-Louis, Mo., USA), drugs were injected intraperitoneally at the indicated doses. For competitive reconstitution experiments, 3000 LSKs sorted from C57BL/6 CD45.1 mice subjected or not to TBI (2 Gy) and TPO injection (8 μg/kg body weight), were injected in lethally irradiated (10 Gy) C57BL/6 CD45.2 congenic mice, together with 3×10^5 BM CD45.2 competitor cells and analyzed 4 months later.
(§4) Immunofluorescence was performed as described (Pawlikowska et al., 2010) with cells cytospun on glass slides. Slides were visualized with Leica DMI 6000 (Wetzlar, Germany) microscope equipped with a 63×1.6 oil-immersion objective and a coupled device camera MicroMAX (Princeton Instruments Trenton, N.J., USA). Pictures were analyzed using ImageJ software.

UT7-Mpl cells = assay: DNA damage and p-DNA-PK foci in UT7-Mpl cells after IR; type: cell-based, human
Text: as §3, §4

Lin^− progenitors = assay: Chromosomal aberrations in metaphases from Lin− progenitors after TBI in vivo; set-up: species or system mice
Description: Fluorescence was analyzed with a Zeiss Axioplan epifluorescent microscope and ISIS/M-FISH imaging system (MetaSystems).

LSKs from SCID mice = assay: γH2AX foci in LSKs from SCID mice after TBI; type: in vivo; details: SCID mice (DNA-PKcs mutation), TPO 8 μg/kg, TBI 2 Gy, 16 h
Text: as §1, §2

Rad51 foci = assay: Homologous recombination markers: Rad51 foci and repair of replicative-stress DSBs; type: cell-based
LSK and LSK-CD34^− cells [4] = assay: LSK and LSK-CD34− proportions, cell cycle status and cell cycle regulators 5 h after TBI; type: in vivo, mice
Text: as §3

LSKs [5] = assay: γH2AX foci / DNA break disappearance after IR in vitro in cytokine cultures; type: cell-based, mice; details: removal of the cytokine from culture medium
Text: as §1, §2

[6] = in the absence of TPO, compared to TPO-treated cells, IR 2 Gy

Molecule: O=c1cc(N2CCOCC2)oc2c(-c3cccc4c3sc3ccccc34)cccc12 [NU7441]
- TPO-improved γH2AX foci resolution (DNA-PK): completely abolished

Molecule: Thrombopoietin [TPO]
- chromosomal rearrangements (WT HSPCs): high numbers
- number and cycle of HSCs and HSPCs (LSK and LSK-CD34^− cells [1]): no effect
- persistent DNA damage (γH2AX foci) in HSCs and HSPCs (LSK and LSK-CD34^− cells [1]): almost completely abolished
- increase in donor CD45.1 chimerism in the peripheral blood and in BM LSK cells (LSKs [2]; 4 months after transplantation, TPO vs PBS before TBI): 3- to 5 fold
- donor chimerism, difference between the TPO and PBS groups (LSKs [2]; 6 weeks posttransplantation): No difference
- number of LSKs displaying γH2AX foci (LSKs [3]; TPO 8 μg/kg injected just before 2 Gy TBI, at 5 h): reduced significantly
- number of LSKs displaying γH2AX foci (LSKs [3]; TPO injected just before doxorubicine (3 or 10 mg/kg), at 24 h): reduced significantly
- number of LSKs displaying γH2AX foci (LSKs [3]; TPO injected just before etoposide (4 mg/kg), at 24 h): reduced significantly
- TPO action on IR-induced DNA damage in human cell line (UT7-Mpl cells; UT7-Mpl grown with EPO or TPO): could also act
- number of UT7-Mpl cells showing IR-induced pSer2056- and pT2609-DNA-PK foci (UT7-Mpl cells; [6]): significantly decreased
- p-DNA-PK foci number in positively stained cells (UT7-Mpl cells; [6]): greatly reduced
- total DNA-PK signal (UT7-Mpl cells; upon IR or TPO treatment): did not change
- chromosomal aberrations in metaphases from progenitor cells (Lin^− progenitors; 3 months from TBI, TPO-injected mice): greatly reduced
- genomic instability (genomic rearrangements) transmitted to progenitor progeny of LSKs (Lin^− progenitors; 4 months after reconstitution of lethally irradiated recipients, TPO injection before TBI): significantly reduced
- TBI-induced LSK γH2AX foci formation (LSKs from SCID mice): did not decrease
- repair of DSBs induced by replicative stresses (Rad51 foci; camptotecin and hydroxyurea): could not improve
- IR-induced Rad51 foci formation (Rad51 foci; functional marker of HR): did not increase
- proportions of LSK and LSK-CD34− cells recovered from BM (LSK and LSK-CD34^− cells [4]; 5 h after TBI, PBS vs TPO-treated mice): not significantly different
- cell cycle status of LSK or LSK-CD34− cells (LSK and LSK-CD34^− cells [4]; TPO treatment pre-TBI, compared to PBS): did not alter
- expression of cell cycle regulators p57kip2 and p27Kip1 (LSK and LSK-CD34^− cells [4]; after TPO injection and TBI): remained unchanged

Molecule: Stem cell factor [SCF, reference compound]
- kinetics of IR-induced γH2AX foci or DNA break disappearance (LSKs [5]): did not impair

B1: Flt3-ligand: recombinant cytokine of the culture medium (100 ng/ml) (protein, UniProt P49771 27-235, looked up)
Fms-related tyrosine kinase 3 …: TQDCSFQHSPISSDFAVKIRELSDYLLQDYPVTVASNLQDEELCGGLWRLVLAQRWMERLKTVAGSKMQGLLERVNTEIHFVTKCAFQPPPSCLRFVQTNISRLLQETSEQLVALKPWITRQNFSRCLELQCQPDSSTLPPPWSPRPLEATAPTAPQPPLLLLLLLPVGLLLLAAAWCLHWQRTRRRTPRPGEQVPPVPSPQDLLLVEH
- kinetics of IR-induced γH2AX foci or DNA break disappearance (LSKs [5]): did not impair
